In the NIST ThermoML archive (doi:10.1021/je0601457):
± gives the expanded uncertainty stated by the source.

Assay: xn = mol fraction of the nth substance listed
Details: Liquid, linear displacement

COc1cnccn1 [methoxypyrazine] + O=C=O
Details	mass density [kg/m3]
294.35 K, x1 = 0.107	802 ± 32
294.55 K, x1 = 0.129	922 ± 39
295.15 K, x1 = 0.069	809 ± 32
295.15 K, x1 = 0.919	1033 ± 42
295.25 K, x1 = 0.015	726 ± 29
295.25 K, x1 = 0.039	780 ± 31
295.75 K, x1 = 0.207	911 ± 38
295.75 K, x1 = 0.379	929 ± 37
296.35 K, x1 = 0.025	797 ± 32
296.85 K, x1 = 0.232	981 ± 39
297.15 K, x1 = 0.919	1109 ± 44
298.15 K, x1 = 0.379	934 ± 37
299.55 K, x1 = 0.015	749 ± 30
299.95 K, x1 = 0.919	1063 ± 43
303.35 K, x1 = 0.025	778 ± 31
303.75 K, x1 = 0.015	718 ± 29
304.35 K, x1 = 0.007	679 ± 27
305.95 K, x1 = 0.919	1097 ± 44
306.95 K, x1 = 0.207	945 ± 38
307.15 K, x1 = 0.069	843 ± 34
307.55 K, x1 = 0.129	920 ± 37
307.95 K, x1 = 0.039	778 ± 31
310.65 K, x1 = 0.107	860 ± 34
311.95 K, x1 = 0.637	1122 ± 45
312.55 K, x1 = 0.379	1012 ± 41
313.55 K, x1 = 0.025	696 ± 28
314.15 K, x1 = 0.232	987 ± 40
317.85 K, x1 = 0.919	1085 ± 43
326.85 K, x1 = 0.129	864 ± 35
328.45 K, x1 = 0.207	906 ± 36
330.65 K, x1 = 0.379	982 ± 39
332.45 K, x1 = 0.232	948 ± 38
332.65 K, x1 = 0.637	1097 ± 44
332.65 K, x1 = 0.919	1063 ± 43
332.85 K, x1 = 0.107	794 ± 32
348.55 K, x1 = 0.207	866 ± 35
348.65 K, x1 = 0.379	958 ± 38
348.95 K, x1 = 0.919	1050 ± 42
354.15 K, x1 = 0.232	902 ± 36
354.35 K, x1 = 0.637	1070 ± 43
366.45 K, x1 = 0.379	933 ± 37
367.35 K, x1 = 0.637	1055 ± 43
367.65 K, x1 = 0.207	824 ± 33
368.95 K, x1 = 0.232	864 ± 35
